{"source": "paper doi:10.1101/2021.04.08.439011v1", "about": "(biorxiv, 2021)", "details_in_all_cases": "1 µM; binder", "key": {"BLK": {"biological_target": "BLK (Homo sapiens, UniProt P51451)"}, "BRAF(V600E)": {"biological_target": "BRAF(V600E) (Homo sapiens, UniProt P15056, V600E)"}, "CAMK2B": {"biological_target": "CAMK2B (Homo sapiens, UniProt Q13554)"}, "CDC2L2": {"biological_target": "CDC2L2 (Homo sapiens, UniProt Q9UQ88)"}, "CDKL5": {"biological_target": "CDKL5 (Homo sapiens, UniProt O76039)", "sequence (O76039 whole entry)": "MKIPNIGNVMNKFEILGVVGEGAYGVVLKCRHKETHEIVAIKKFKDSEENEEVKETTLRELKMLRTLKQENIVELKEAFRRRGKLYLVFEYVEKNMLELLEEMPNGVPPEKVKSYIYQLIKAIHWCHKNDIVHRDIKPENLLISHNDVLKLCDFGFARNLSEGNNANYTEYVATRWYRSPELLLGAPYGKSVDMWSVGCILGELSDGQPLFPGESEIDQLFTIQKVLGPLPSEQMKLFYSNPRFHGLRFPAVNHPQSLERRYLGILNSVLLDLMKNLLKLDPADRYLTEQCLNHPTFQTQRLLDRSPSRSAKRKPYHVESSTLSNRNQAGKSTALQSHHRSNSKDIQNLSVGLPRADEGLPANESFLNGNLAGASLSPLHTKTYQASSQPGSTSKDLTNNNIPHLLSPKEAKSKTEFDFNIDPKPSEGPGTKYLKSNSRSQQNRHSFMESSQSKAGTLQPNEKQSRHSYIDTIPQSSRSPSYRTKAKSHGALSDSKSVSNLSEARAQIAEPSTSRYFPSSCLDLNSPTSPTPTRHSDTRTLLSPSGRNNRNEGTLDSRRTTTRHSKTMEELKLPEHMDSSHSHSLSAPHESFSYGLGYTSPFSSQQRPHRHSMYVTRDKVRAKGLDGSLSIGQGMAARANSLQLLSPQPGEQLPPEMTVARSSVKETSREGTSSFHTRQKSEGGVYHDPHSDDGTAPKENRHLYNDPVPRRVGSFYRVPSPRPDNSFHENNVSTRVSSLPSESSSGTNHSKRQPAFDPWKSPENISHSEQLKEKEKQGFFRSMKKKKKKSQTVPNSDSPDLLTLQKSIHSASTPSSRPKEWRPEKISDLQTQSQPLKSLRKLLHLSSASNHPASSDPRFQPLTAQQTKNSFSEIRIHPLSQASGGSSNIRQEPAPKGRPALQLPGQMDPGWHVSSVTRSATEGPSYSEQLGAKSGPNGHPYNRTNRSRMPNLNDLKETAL"}, "CLK4": {"biological_target": "CLK4 (Homo sapiens, UniProt Q9HAZ1)"}, "EGFR(L861Q)": {"biological_target": "EGFR(L861Q) (Homo sapiens, UniProt P00533, L861Q)"}, "ERBB4": {"biological_target": "ERBB4 (Homo sapiens, UniProt Q15303)"}, "FGFR2": {"biological_target": "FGFR2 (Homo sapiens, UniProt P21802)"}, "FGFR3(G697C)": {"biological_target": "FGFR3(G697C) (Homo sapiens, UniProt P22607, G697C)"}, "FGFR4": {"biological_target": "FGFR4 (Homo sapiens, UniProt P22455)"}, "GCN2(Kin.Dom.2,S808G)": {"biological_target": "GCN2(Kin.Dom.2,S808G) (Homo sapiens, UniProt Q9P2K8, S808G)"}, "IRAK3": {"biological_target": "IRAK3 (Homo sapiens, UniProt Q9Y616)"}, "KIT(A829P)": {"biological_target": "KIT(A829P) (Homo sapiens, UniProt P10721, A829P)", "sequence (P10721 whole entry A829P)": "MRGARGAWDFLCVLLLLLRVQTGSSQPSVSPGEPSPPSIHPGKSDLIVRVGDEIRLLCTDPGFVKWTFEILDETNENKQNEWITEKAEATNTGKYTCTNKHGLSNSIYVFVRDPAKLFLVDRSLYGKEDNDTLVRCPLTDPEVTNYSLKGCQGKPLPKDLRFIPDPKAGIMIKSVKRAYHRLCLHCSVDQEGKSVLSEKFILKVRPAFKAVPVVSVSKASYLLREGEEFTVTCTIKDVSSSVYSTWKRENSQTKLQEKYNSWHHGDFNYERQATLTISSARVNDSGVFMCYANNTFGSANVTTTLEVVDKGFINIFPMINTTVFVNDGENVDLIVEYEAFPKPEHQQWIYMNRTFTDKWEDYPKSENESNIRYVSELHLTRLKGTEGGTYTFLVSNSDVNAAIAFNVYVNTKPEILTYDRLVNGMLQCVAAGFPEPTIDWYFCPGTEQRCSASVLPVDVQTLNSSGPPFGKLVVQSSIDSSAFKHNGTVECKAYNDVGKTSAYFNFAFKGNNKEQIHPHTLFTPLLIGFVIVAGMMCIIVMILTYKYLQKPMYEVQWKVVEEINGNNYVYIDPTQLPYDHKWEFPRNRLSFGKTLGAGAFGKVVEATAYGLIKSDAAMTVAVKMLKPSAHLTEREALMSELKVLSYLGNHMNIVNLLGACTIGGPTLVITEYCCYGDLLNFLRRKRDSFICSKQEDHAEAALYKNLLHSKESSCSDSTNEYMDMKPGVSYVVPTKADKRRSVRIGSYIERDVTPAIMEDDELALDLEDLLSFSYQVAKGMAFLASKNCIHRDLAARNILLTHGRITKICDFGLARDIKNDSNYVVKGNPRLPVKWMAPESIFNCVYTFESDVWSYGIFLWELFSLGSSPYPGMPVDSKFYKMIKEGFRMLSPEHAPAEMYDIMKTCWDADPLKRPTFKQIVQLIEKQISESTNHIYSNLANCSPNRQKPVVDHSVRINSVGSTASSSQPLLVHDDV"}, "KIT-autoinhibited": {"biological_target": "KIT-autoinhibited (Homo sapiens, UniProt P10721)", "sequence (P10721 whole entry)": "as the sequence (P10721 whole entry A829P) above, with P829A counted along it"}, "LOK": {"biological_target": "LOK (Homo sapiens, UniProt O94804)"}, "MINK": {"biological_target": "MINK (Homo sapiens, UniProt Q8N4C8)"}, "MLK2": {"biological_target": "MLK2 (Homo sapiens, UniProt Q02779)", "sequence (Q02779 whole entry)": "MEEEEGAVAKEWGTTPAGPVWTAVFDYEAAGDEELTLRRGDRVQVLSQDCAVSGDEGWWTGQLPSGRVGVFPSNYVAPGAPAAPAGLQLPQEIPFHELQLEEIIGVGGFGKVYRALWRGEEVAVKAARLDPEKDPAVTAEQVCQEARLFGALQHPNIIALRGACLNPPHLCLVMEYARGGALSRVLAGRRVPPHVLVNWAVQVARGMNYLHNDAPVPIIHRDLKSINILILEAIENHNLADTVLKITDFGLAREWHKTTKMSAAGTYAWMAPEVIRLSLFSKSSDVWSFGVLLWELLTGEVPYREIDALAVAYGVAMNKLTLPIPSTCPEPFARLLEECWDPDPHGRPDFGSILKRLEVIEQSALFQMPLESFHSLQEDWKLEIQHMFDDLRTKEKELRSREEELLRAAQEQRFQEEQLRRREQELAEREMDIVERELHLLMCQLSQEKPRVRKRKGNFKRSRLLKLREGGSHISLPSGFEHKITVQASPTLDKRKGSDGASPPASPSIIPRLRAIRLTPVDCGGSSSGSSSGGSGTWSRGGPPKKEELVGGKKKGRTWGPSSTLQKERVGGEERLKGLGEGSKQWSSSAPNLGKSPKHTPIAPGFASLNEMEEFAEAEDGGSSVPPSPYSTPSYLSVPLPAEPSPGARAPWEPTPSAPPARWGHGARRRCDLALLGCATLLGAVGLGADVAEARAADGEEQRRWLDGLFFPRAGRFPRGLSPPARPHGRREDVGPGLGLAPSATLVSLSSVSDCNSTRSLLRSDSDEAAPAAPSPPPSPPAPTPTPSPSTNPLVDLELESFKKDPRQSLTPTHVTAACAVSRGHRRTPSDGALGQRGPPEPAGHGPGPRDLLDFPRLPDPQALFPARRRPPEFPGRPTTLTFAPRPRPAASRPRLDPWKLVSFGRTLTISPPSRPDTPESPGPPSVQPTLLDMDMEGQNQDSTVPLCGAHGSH"}, "MYO3A": {"biological_target": "MYO3A (Homo sapiens, UniProt Q8NEV4)"}, "NEK6": {"biological_target": "NEK6 (Homo sapiens, UniProt Q9HC98)"}, "NEK9": {"biological_target": "NEK9 (Homo sapiens, UniProt Q8TD19)"}, "PIK3CA(Q546K)": {"biological_target": "PIK3CA(Q546K) (Homo sapiens, UniProt P42336, Q546K)", "sequence (P42336 whole entry Q546K)": "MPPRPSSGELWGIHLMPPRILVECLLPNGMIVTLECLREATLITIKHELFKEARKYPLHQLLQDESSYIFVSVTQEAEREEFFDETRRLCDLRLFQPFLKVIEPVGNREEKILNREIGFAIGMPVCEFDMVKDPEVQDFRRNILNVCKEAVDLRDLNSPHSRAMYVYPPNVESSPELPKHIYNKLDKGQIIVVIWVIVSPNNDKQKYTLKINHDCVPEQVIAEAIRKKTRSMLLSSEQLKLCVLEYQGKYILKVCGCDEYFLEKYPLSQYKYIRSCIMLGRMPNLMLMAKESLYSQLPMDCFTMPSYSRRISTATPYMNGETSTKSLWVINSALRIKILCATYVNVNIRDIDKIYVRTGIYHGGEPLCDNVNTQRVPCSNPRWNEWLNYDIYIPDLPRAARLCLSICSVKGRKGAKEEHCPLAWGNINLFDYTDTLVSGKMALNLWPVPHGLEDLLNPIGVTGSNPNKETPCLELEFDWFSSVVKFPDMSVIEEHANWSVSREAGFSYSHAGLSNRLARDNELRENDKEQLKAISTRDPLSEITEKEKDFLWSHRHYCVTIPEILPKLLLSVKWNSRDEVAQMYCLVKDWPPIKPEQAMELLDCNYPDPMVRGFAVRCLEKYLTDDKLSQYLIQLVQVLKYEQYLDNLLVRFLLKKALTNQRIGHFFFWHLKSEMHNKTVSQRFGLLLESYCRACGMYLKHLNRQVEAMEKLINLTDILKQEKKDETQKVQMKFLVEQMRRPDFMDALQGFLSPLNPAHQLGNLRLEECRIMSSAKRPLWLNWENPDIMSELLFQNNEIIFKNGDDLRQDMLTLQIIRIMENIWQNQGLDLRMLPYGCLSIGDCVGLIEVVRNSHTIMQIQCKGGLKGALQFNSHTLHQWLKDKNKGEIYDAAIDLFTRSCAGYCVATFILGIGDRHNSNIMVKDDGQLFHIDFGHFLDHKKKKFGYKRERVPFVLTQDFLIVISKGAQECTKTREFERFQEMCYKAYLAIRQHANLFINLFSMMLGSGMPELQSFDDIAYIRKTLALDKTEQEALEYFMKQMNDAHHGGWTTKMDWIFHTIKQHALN"}, "SGK": {"biological_target": "SGK (Homo sapiens, UniProt O00141)", "sequence (O00141 whole entry)": "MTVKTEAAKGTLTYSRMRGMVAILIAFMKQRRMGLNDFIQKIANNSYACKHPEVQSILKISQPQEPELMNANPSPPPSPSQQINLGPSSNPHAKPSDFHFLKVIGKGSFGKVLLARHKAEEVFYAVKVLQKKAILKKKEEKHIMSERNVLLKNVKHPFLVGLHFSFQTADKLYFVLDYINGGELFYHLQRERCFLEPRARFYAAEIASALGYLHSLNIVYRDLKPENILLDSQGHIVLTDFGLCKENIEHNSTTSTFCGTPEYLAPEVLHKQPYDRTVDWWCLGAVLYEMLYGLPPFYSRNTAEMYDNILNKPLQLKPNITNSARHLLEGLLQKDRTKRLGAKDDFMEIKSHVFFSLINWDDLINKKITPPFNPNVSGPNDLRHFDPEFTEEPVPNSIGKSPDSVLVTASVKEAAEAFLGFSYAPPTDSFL"}, "STK35": {"biological_target": "STK35 (Homo sapiens, UniProt Q8TDR2)"}, "TIE2": {"biological_target": "TIE2 (Homo sapiens, UniProt Q02763)"}, "TRKB": {"biological_target": "TRKB (Homo sapiens, UniProt Q16620)"}, "TSSK1B": {"biological_target": "TSSK1B (Homo sapiens, UniProt Q9BXA7)"}, "WEE1": {"biological_target": "WEE1 (Homo sapiens, UniProt P30291)"}, "YSK1": {"biological_target": "YSK1 (Homo sapiens, UniProt O00506)"}, "p38-delta": {"biological_target": "p38-delta (Homo sapiens, UniProt O15264)", "sequence (O15264 whole entry)": "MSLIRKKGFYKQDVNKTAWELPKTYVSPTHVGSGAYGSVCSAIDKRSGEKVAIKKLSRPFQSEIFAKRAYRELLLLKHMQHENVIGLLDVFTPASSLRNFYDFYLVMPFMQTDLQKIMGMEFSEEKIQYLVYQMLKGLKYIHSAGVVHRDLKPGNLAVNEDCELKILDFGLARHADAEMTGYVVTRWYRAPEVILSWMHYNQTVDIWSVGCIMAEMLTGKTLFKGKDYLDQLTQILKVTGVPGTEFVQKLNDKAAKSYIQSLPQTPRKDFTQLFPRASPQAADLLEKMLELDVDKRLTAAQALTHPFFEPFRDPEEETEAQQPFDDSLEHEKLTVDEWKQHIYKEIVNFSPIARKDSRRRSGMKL"}}}
{"smiles": "CNc1ncc2cc(-c3ccc(-c4cccc(C)n4)cc3Cl)c(=O)n(C[C@H]3OC[C@H](N)CO3)c2n1", "note": "[compound 6, G-5555]", "values": [{"measurement": "Percent Control", "setting": "BLK", "result": 99, "unit": "%"}, {"measurement": "Percent Control", "setting": "BRAF(V600E)", "result": 93, "unit": "%"}, {"measurement": "Percent Control", "setting": "CAMK2B", "result": 100, "unit": "%"}, {"measurement": "Percent Control", "setting": "CDC2L2", "result": 100, "unit": "%"}, {"measurement": "Percent Control", "setting": "CDKL5", "result": 97, "unit": "%"}, {"measurement": "Percent Control", "setting": "CLK4", "result": 100, "unit": "%"}, {"measurement": "Percent Control", "setting": "EGFR(L861Q)", "result": 100, "unit": "%"}, {"measurement": "Percent Control", "setting": "ERBB4", "result": 100, "unit": "%"}, {"measurement": "Percent Control", "setting": "FGFR2", "result": 100, "unit": "%"}, {"measurement": "Percent Control", "setting": "FGFR3(G697C)", "result": 100, "unit": "%"}, {"measurement": "Percent Control", "setting": "FGFR4", "result": 100, "unit": "%"}, {"measurement": "Percent Control", "setting": "GCN2(Kin.Dom.2,S808G)", "result": 63, "unit": "%"}, {"measurement": "Percent Control", "setting": "IRAK3", "result": 92, "unit": "%"}, {"measurement": "Percent Control", "setting": "KIT(A829P)", "result": 63, "unit": "%"}, {"measurement": "Percent Control", "setting": "KIT-autoinhibited", "result": 81, "unit": "%"}, {"measurement": "Percent Control", "setting": "LOK", "result": 2.1, "unit": "%"}, {"measurement": "Percent Control", "setting": "MINK", "result": 26, "unit": "%"}, {"measurement": "Percent Control", "setting": "MLK2", "result": 88, "unit": "%"}, {"measurement": "Percent Control", "setting": "MYO3A", "result": 96, "unit": "%"}, {"measurement": "Percent Control", "setting": "NEK6", "result": 100, "unit": "%"}, {"measurement": "Percent Control", "setting": "NEK9", "result": 100, "unit": "%"}, {"measurement": "Percent Control", "setting": "PIK3CA(Q546K)", "result": 100, "unit": "%"}, {"measurement": "Percent Control", "setting": "SGK", "result": 100, "unit": "%"}, {"measurement": "Percent Control", "setting": "STK35", "result": 100, "unit": "%"}, {"measurement": "Percent Control", "setting": "TIE2", "result": 52, "unit": "%"}, {"measurement": "Percent Control", "setting": "TRKB", "result": 100, "unit": "%"}, {"measurement": "Percent Control", "setting": "TSSK1B", "result": 100, "unit": "%"}, {"measurement": "Percent Control", "setting": "WEE1", "result": 100, "unit": "%"}, {"measurement": "Percent Control", "setting": "YSK1", "result": 36, "unit": "%"}, {"measurement": "Percent Control", "setting": "p38-delta", "result": 100, "unit": "%"}]}
